The subject of one assay is Ras. In words: Determination of total Ras by Western immunoblotting with pan anti-Ras antibody. In kind it is cell-based, human. The settings on record: OVCAR-3 cells; for reduction in Ras: 24 h. As to the method:
(§1) OVCAR-3 cells were plated at a density of 1.5×10^6 cells in 10-cm plates and grown for 24 h in the presence of 25 or 50 μM FTS. The cells were lysed in 0.5 mL of the Ras-binding domain of Raf-1 (RBD) lysis buffer [Herrmann, C., Martin, G. A. and Wittinghofer, A., J Biol Chem 270:2901-05 (1995)] containing 0.1 mM orthovanadate. Lysates containing 50 μg protein were used to determine total Ras by Western immunoblotting with pan anti-Ras antibody (Ab) and lysates containing 1500 μg protein to determine Ras-GTP by the glutathione S-transferase RBD pull-down assay followed by Western immunoblotting with pan anti-Ras Ab and enhanced chemiluminescence, as previously described [Fridman, M., Maruta, H. and Gonez, J., J Biol Chem 275:30363-71 (2000)]. Mouse anti β-tubulin Ab (AK-15, Sigma) was used at a dilution of 1:500 to confirm equal protein loading.
(§2) In view of the finding that OVCAR-3 cells expressed significant amounts of Ras and active Ras-GTP (FIGS. 1a and b), Applicants examined whether the Ras antagonist FTS would affect the amounts of Ras and Ras-GTP in these cells in the same way as it affects active Ras in other cell lines [Marom, M., supra.; Elad, G., Paz, A., Haklai, R., Marciano, D., Cox, A., Kloog, Y. Biomed Biochim Acta 8:1452:228-42 (1999); Weisz, B., Giehl, K., Gana-Weisz, M. et al. Oncogene 18:2579-88 (1999)]. The cells were grown for 24 h in serum containing medium with or without 25 or 50 μM FTS. Similar conditions were used in earlier studies with other cell lines [Elad, supra.; Weisz, supra.]. […] Quantitative analysis of the immunoblots disclosed that FTS, at concentrations of 25 and 50 μM, caused significant reductions of 5% and 39%, respectively, in Ras and 19% and 41%, respectively, in Ras-GTP (FIG. 1b).

Assay [1] deals with OVCAR-3 cells. Nature of the assay: cells. In kind it is cell-based. As to the method:
The human epithelial ovarian cell line OVCAR-3 was obtained from the American Tissue Culture Collection. Cells were routinely grown in Roswell Park Memorial Institute 1640 medium containing 10% fetal calf serum, 0.1 mM nonessential amino acids, and 2 mM L-glutamine, at 37° C. in a humidified atmosphere of 95% air/5% CO2. To examine the effect of FTS on the anchorage-dependent cell growth, cells were plated at a density of 10×10^4 cells per well in 24-well plates to which either 0.1% DMSO (control) or the test concentrations of FTS were added after 24 h. […] Cells were stained with 3-(4,5-dimethylthiosol-2-yl)-2,5-diphenyltetrazolium bromide (MTT, Sigma Chemical Co., St. Louis, Mo.), incubated for 90 min, and dissolved in 0.3 mL of 100% DMSO. The extent of staining was determined spectrophotometrically (A570, A630) using an enzyme-linked immunosorbent assay reader. All assays were carried out in quadruplicate samples and were repeated three times.
Anchorage-dependent cell growth was examined in cells that were grown in the presence of FTS.

The test system of assay [2] is OVCAR-3 cells. In words: cells. The format is cell-based. The settings on record: Homo sapiens, 50 μM FTS alone, read-out: inhibition of cell growth. The protocol:
OVCAR-3 cells were plated at a density of 10×10^4 cells per well in 24-well plates and grown for 3 days in the presence of 50 μM FTS. […] This protocol was chosen in order to induce only a small cytotoxic effect, thus enabling a determination of any possible enhanced effect with the Ras inhibitor. The number of live cells was evaluated 3 days later by MTT, as described earlier.
Thus, the greater than additive effect of these two drugs was manifested in an additional decrease of 35% in cell number, which was accounted for by death of the cells.

The subject of the next assay is Ras-GTP. In words: Determination of Ras-GTP by GST-RBD pull-down assay and Western immunoblotting. The format is cell-based, human. The settings on record: OVCAR-3 cells; for reduction in Ras-GTP: 24 h. As to the method: as §1, §2
Background: In western blotting, separated proteins are transferred to a membrane and probed.

[3] abbreviates: FTS alone, concentration not given.

This note sets out measurements from US8268889B2, “Treatment of ovarian cancer” (Ramot at Tel-Aviv University Ltd., priority 2006, dated 2012).

The structures appear in SMILES notation.

Regarding `CC(C)=CCC/C(C)=C/CC/C(C)=C/CSc1ccccc1C(=O)O` [FTS, farnesylthiosalicylic acid], the results for the “reduction in Ras” value with Ras (25 μM FTS) and in the assay with Ras (50 μM FTS) were 5% and 39%, respectively. Further, in the assay with Ras (setting [3]), the “Ras reduced (summary statement)” value is recorded as 40%. The IC50 with OVCAR-3 cells [1] (Homo sapiens, OVCAR-3, read-out: IC50 (concentration causing 50% inhibition of cell growth)) was 54 µM. The “foci formation and growth” value in the assay on OVCAR-3 cells [1] (OVCAR-3 cultures, 7 days with 25 or 50 μM FTS) is on record as “strongly inhibited”. Also, the inhibition at 50 µM in the assay on OVCAR-3 cells [2] stood at 45%. Also, the “reduction in Ras-GTP” value in the assay on Ras-GTP (25 μM FTS) was 19%; in the assay on Ras-GTP (50 μM FTS), 41%. Also, in the assay on Ras-GTP (setting [3]), the “Ras-GTP reduced (summary statement)” value came out at 40%.

For orientation: inhibition means how much of the control response was suppressed.
